In article PMC8878047 (Pharmaceutics, 2022):
In brackets after ≈: the same amount, converted by molar mass.

Key:
[1] = tested on: KM mice; type: in vivo; settings: high-dose group, dead mice, HE staining
Description: After the acute toxicity test, the dead mice after oral administration and the surviving mice at the end of the observation period were promptly dissected and pathologically examined. […] We dissected the important organs (heart, liver, spleen, lung, kidney, large intestine, and small intestine) of dead mice and normal mice in the high-dose group of each drug solution. Then, the main organs were fixed in 10% buffered formalin and embedded in paraffin for 1–4 h. They were histopathologically examined under the optical microscope after slicing and staining with hematoxylin-eosin (HE) staining. No fixed parameters were compared between the treatment and control groups.

[2] = tested on: Staphylococcus aureus; experiment: In vitro antibacterial activity (MIC/MBC, doubling dilution); type: cell-based; settings: S. aureus, 37 °C, 24 h
Description: (§1) The clinically typical pathogens (Staphylococcus aureus, Escherichia coli, Pseudomonas aeruginosa, Salmonellosis typhoidal and Proteus vulgaris) were obtained from the Department of Microbiology and Immunology of Guangxi Medical University. We cultured the bacterial suspension of five pathogens in bouillon culture-medium at 37 °C, and diluted it into 0.5 McFarland Standard with bioclean normal saline (the volume ratio of each bacterial suspension and bioclean normal saline was 1:1000, and the concentration of bacterial suspension was 1~2 × 10^8 CFU/mL). […] We carried out the assays for MIC and MBC evaluation by doubling the dilution under sterile operation on the clean bench. To be specific, we set the sterile test tubes numbered 1–10 for comparison according to the half-dilution method. We added the broth medium to each test tube to fix the final volume to be 2 mL. […] Then, we filled each tube with 50 μL of inoculated bacteria colony, except for tube no. 9, which was the negative control. The final colony concentration in each test tube was 2 × 10^5 CFU/mL. Tube no. 10 was set as a blank without the tested drug. […] We repeated all tests in triplicate.

[3] = tested on: Pseudomonas aeruginosa; experiment: as above; type: cell-based; settings: P. aeruginosa, 37 °C, 24 h
Description: as §1

[4] = tested on: Proteus vulgaris; experiment: as above; type: cell-based; settings: P. vulgaris, 37 °C, 24 h
Description: as §1

[5] = rat, in vivo, po

Compound	histopathological finding in kidney tissue [1]	histopathological finding in lung tissue [1]	MBC [2] [µg/mL]	MIC [2] [µg/mL]	MBC [3] [µg/mL]	MIC [3] [µg/mL]	MBC [4] [µg/mL]	MIC [4] [µg/mL]	Cl ([5]; male, SD) [mL/min/kg]	Vd ([5]; male, SD) [L/kg]	Tmax [5] [H]
CCN1CCN(c2cc3c(cc2F)c(=O)c(C(=O)[O-])cn3C2CC2)CC1.CCN1CCN(c2cc3c(cc2F)c(=O)c(C(=O)[O-])cn3C2CC2)CC1.O.O.O.O.[Ca+2] [EFX-Ca, [Ca(EFX)2(H2O)4]·H2O]	enlargement of the renal capsule	significant inflammatory cell infiltration of the lung tissue	–	–	–	–	–	–	–	–	–
CCN1CCN(c2cc3c(cc2F)c(=O)c(C(=O)O)cn3C2CC2)CC1 [EFX, enrofloxacin, reference compound]	–	–	0.25 (≈ 0.696 µM)	0.25 (≈ 0.696 µM)	0.125 (≈ 0.348 µM)	0.125 (≈ 0.348 µM)	0.125 (≈ 0.348 µM)	0.125 (≈ 0.348 µM)	0.6167	1.05316	1
